Test results from patent US10538487B2, “Sulfonylureas and related compounds and use of same” (priority 2015, dated 2020).
Read-outs that look alike come from different tables or passages of the source.

What was measured:
NLRP3 inflammasome [1] = molecular target: T1, NLRP3 inflammasome (Homo sapiens, UniProt Q96P20); test: Inhibition of IL-1β release, NLRP3 inflammasome activation assay in HMDM; format: cell-based
In short: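 Primary human monocyte-derived macrophages from CD14+ buffy-coat monocytes, seeded at 1×10^5/ml. Compound added in serum-free medium 30 min before NLRP3 stimulation (ATP, nigericin, LeuLeu-OMe or MSU). Cytokine in supernatants measured by ELISA or AlphaLISA; cell death by LDH release relative to full lysis.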

NLRP3 inflammasome [2] = molecular target: T1, NLRP3 inflammasome; test: Inhibition of IL-18 release, NLRP3 inflammasome activation assay in HMDM; format: cell-based; conditions: class symbols
Experimental: The following assays can be used to determine inhibitory activity of test compounds on the NLRP3 inflammasome using common stimuli such as adenosine triphosphate, nigericin, LeuLeu-OMe or monosodium urate crystals (MSU).
To generate HMDM, human monocytes are isolated from buffy coat blood using Ficoll-Plaque Plus (GE Healthcare) and density centrifugation. CD14^+ cell selection is performed using MACS magnetic beads (Miltenyl Biotec).
HMDM are seeded at 1×10^5/ml. […] Medium is removed and replaced with serum free medium (SFM) containing test compound 30 min prior to NLRP3 stimulation. […] ATP can be sourced from Sigma Aldrich, nigericin and MSU from Invivogen and LeuLeu-Ome from Chem-Impex International.
For ELISA and cell death assays cells are seeded in 96 well plates. Supernatants are removed and analysed using ELISA kits according to the manufacturer's instructions (DuoSet® R&D Systems, ReadySetGo!® eBioscience, BD OptEIA™, or Perkin Elmer AlphaLISA®). Cell death is assessed by measurement of LDH release relative to a 100% cell lysis control using the CytoTox96® non-radioactive cytotoxicity assay (Promega).

[3] = Half life of CRID3 in mouse (stated in description); format: in vivo
NLRP3 inflammasome [4] = molecular target: NLRP3 inflammasome (Mus musculus, UniProt Q8R4B8); test: Inhibition of IL-1β release, NLRP3 inflammasome activation assay in BMDM; format: cell-based
In short: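 C57BL/6 mouse BMDM seeded at 1×10^5/ml were primed with E. coli K12 LPS for 3 h, then given compound in serum-free medium 30 min before NLRP3 stimulation (ATP, nigericin, LeuLeu-OMe or MSU). Released IL-1β in supernatants was measured by ELISA, and cell death by LDH release relative to full lysis.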

[5] = Compound levels in blood plasma of mice after oral gavage (LC-MS/MS); format: in vivo; conditions: mouse, 2 hour timepoint after oral gavage at 20 mg/Kg
Experimental: A series of 10-fold dilutions of the 100,000 ng/mL stock solution with 10 mM NH4HCO3 gave concentrations of 10,000, 1,000, 100 and 10 ng/mL. The 100,000 ng/mL stock solution was diluted to 3:7 with 10 mM NH4HCO3 to give a concentration of 30,000 ng/mL and a series of 10-fold dilutions gave concentrations of 3,000, 300, 30 and 3 ng/mL.
20 μL of test compound-containing solution and 160 μL precipitation solution were added to 20 μL of mouse plasma in a low binding Eppendorf tube. The samples were vortexed, allowed to stand at 4° C. for 10 mins and centrifuged at 14,000×g for 8 min. 150 μL of the supernatant was transferred to an HPLC vial insert. The samples were stored at 4° C. until analysis.
Dosing: Oral gavage at 20 mg/kg
(§1) Prepare stock compounds for dosing at 4 mg/ml in sterile PBS. Mice were weighed and dosed by oral gavage at 20 mg/kg for each compound. […]
The samples were analysed on an AB Sciex 4000QTrap MS with 2 Shimadzu Nexera LC-30AD Solvent Delivery Units, Shimadzu Nexera SIL-30AC Auto-Sampler, Shimadzu Prominence DGU-20A5 Degasser, Shimadzu Prominence CBM-20A System Controller and Shimadzu Prominence CTO-20A Column Oven. […] The peak areas from the SRM data for carbutamide and test compound were analysed using the AB Sciex's Analyst software using the Quantitation Wizard.

in vivo = conditions: mouse, brain, mice, oral gavage at 20 mg/kg
Experimental: The sample solutions prepared for the plasma standard curve were used for the brain homogenate standard curve.
The mouse brain homogenate from the saline control was thawed and vortexed for 3 min or until homogenous, sonicated for 1 min. When the foam settled, 50 μL of mouse brain homogenate was transferred into an Eppendorf tube, followed by 50 μL of test compound in 10 mM NH4HCO3, 150 μL of H2O and 500 μL of ice cold precipitation solution with vortexing after every addition. The standards were allowed to stand at 4° C. for 10 mins and then centrifuged at 14,000×g for 8 min. 200 μL of the supernatant was transferred to HPLC vial insert ensuring that no air bubbles were present and the samples stored at 4° C. until analysis.
Dosing: Oral gavage at 20 mg/kg
as §1
The samples were analysed on an AB Sciex 4000QTrap MS with 2 Shimadzu Nexera LC-30AD Solvent Delivery Units, Shimadzu Nexera SIL-30AC Auto-Sampler, Shimadzu Prominence DGU-20A5 Degasser, Shimadzu Prominence CBM-20A System Controller and Shimadzu Prominence CTO-20A Column Oven. […] The peak areas from the SRM data for carbutamide and test compound were analysed using the AB Sciex's Analyst software using the Quantitation Wizard. […]

[6] = inhibition of IL-1β release, class symbols, read-out: Avg. IL-1β IC50 HMDM
[7] = inhibition of IL-1β release, class symbols, read-out: Avg. IL-1β IC50 Murine BMDM
[8] = inhibition of IL-1β release, numeric bounds, read-out: Avg. IL-1β IC50 Murine BMDM
[9] = commercial compounds (Table 9), read-out: HMDM IC50 vs NLRP3
[10] = commercial compounds (Table 9), read-out: BMDM IC50 vs NLRP3
[11] = select compounds of the first aspect (Table 10), read-out: HMDM IC50 vs NLRP3
[12] = select compounds of the first aspect (Table 10), read-out: BMDM IC50 vs NLRP3

NLRP3 inflammasome (Mus musculus, UniProt Q8R4B8), sequence (Q8R4B8 whole entry): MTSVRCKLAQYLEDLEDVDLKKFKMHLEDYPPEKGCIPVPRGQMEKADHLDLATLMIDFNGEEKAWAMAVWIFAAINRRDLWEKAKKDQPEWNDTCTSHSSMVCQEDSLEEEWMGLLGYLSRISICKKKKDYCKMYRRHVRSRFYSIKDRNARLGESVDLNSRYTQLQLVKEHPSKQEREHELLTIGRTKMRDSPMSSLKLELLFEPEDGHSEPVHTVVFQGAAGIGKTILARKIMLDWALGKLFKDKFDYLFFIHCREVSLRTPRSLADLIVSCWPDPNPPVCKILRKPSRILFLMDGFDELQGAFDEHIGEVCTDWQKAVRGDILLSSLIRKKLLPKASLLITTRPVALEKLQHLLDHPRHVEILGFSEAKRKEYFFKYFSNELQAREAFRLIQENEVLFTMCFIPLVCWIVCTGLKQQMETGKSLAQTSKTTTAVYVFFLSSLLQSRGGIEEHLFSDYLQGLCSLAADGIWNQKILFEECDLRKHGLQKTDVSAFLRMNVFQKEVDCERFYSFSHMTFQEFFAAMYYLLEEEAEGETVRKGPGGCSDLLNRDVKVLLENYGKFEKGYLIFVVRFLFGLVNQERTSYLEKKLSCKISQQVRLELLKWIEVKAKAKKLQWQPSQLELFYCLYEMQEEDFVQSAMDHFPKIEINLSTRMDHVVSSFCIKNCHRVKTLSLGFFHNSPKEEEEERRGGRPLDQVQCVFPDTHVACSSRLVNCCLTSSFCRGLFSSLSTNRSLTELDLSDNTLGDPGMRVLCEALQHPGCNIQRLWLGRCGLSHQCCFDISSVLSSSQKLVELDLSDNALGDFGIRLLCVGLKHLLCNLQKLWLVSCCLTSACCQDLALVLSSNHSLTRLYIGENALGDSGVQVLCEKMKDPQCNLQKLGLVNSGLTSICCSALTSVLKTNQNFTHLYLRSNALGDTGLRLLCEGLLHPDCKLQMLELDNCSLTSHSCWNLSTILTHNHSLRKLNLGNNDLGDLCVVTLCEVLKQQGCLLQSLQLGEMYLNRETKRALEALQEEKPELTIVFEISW
T1 sequence (Q96P20 whole entry): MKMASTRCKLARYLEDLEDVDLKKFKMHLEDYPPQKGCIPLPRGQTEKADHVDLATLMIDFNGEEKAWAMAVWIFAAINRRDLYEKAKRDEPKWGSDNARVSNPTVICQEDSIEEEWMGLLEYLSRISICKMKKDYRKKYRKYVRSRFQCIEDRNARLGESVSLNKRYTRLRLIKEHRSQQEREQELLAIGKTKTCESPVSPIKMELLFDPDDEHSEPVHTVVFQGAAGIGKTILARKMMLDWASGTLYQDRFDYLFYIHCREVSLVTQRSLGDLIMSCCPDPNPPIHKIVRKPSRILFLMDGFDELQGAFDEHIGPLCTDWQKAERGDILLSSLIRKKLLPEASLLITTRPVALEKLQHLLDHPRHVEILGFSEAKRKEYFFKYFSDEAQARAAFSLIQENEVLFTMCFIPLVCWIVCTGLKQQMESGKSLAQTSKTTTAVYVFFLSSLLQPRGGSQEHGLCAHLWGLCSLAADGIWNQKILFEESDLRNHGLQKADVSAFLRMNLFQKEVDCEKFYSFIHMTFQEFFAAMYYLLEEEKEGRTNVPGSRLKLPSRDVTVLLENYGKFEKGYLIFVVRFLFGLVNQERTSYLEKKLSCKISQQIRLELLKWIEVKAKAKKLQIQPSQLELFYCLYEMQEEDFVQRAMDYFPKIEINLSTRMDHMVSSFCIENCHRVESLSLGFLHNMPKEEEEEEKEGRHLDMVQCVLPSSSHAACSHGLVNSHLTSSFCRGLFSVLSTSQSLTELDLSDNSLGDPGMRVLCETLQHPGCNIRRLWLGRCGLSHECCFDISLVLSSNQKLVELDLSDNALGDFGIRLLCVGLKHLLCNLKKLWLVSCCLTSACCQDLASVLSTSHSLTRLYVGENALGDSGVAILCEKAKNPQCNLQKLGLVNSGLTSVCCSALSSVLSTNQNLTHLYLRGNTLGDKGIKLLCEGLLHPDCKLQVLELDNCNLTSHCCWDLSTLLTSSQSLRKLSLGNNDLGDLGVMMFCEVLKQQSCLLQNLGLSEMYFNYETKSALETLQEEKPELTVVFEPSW

CC(C)(C)n1ccc(S(=O)(=O)NC(=O)Nc2c3c(cc4c2CCC4)CCC3)n1 [1-(tert-butyl)-N-((1,2,3,5,6,7-hexahydro-s-indacen-4-yl)carbamoyl)-1H-pyrazole-3-sulfonamide]
IC50 (NLRP3 inflammasome [1]; [6]): < 0.1 µM
IC50 (NLRP3 inflammasome [2]): < 100 nM

O=C(Nc1c2c(cc3c1CCC3)CCC2)NS(=O)(=O)c1ncn(Cc2ccccc2)n1 [1-benzyl-N-((1,2,3,5,6,7-hexahydro-s-indacen-4-yl)carbamoyl)-1H-1,2,4-triazole-3-sulfonamide]
IC50 (NLRP3 inflammasome [1]; [6]): < 0.1 µM
IC50 (NLRP3 inflammasome [2]): < 100 nM

CC(C)(O)c1cc(S(=O)(=O)NC(=O)Nc2c3c(cc4c2CCC4)CCC3)nn1Cc1ccccc1 [1-benzyl-N-((1,2,3,5,6,7-hexahydro-s-indacen-4-yl)carbamoyl)-5-(2-hydroxypropan-2-yl)-1H-pyrazole-3-sulfonamide]
IC50 (NLRP3 inflammasome [1]; [6]): < 0.1 µM
IC50 (NLRP3 inflammasome [2]): < 100 nM

CC(C)(O)c1coc(S(=O)(=O)NC(=O)Nc2c3c(cc4c2CCC4)CCC3)c1 [CRID3]
half life [3]: 3.2 h

Cn1nc(S(=O)(=O)NC(=O)Nc2c3c(cc4c2CCC4)CCC3)cc1C(C)(C)O [N-((1,2,3,5,6,7-hexahydro-s-indacen-4-yl)carbamoyl)-5-(2-hydroxypropan-2-yl)-1-methyl-1H-pyrazole-3-sulfonamide]
IC50 (NLRP3 inflammasome [1]; [6]): < 0.1 µM
IC50 (NLRP3 inflammasome [2]): < 100 nM
IC50 (NLRP3 inflammasome [4]; [7]): < 0.1 µM

CC(C)(O)c1cc(S(=O)(=O)NC(=O)Nc2c3c(cc4c2CCC4)CCC3)nn1-c1ccccc1 [N-((1,2,3,5,6,7-hexahydro-s-indacen-4-yl)carbamoyl)-5-(2-hydroxypropan-2-yl)-1-phenyl-1H-pyrazole-3-sulfonamide]
IC50 (NLRP3 inflammasome [1]; [6]): < 0.1 µM
IC50 (NLRP3 inflammasome [2]): < 100 nM
IC50 (NLRP3 inflammasome [4]; [7]): < 0.1 µM

Cc1ccc(S(=O)(=O)NC(=O)Nc2c3c(cc4c2CCC4)CCC3)o1 [N-((1,2,3,5,6,7-hexahydro-s-indacen-4-yl)carbamoyl)-5-methylfuran-2-sulfonamide]
IC50 (NLRP3 inflammasome [1]; [6]): < 0.1 µM
IC50 (NLRP3 inflammasome [2]): < 100 nM

Cc1ccc(S(=O)(=O)NC(=O)Nc2c3c(cc4c2CCC4)CCC3)s1 [N-((1,2,3,5,6,7-hexahydro-s-indacen-4-yl)carbamoyl)-5-methylthiophene-2-sulfonamide]
IC50 (NLRP3 inflammasome [1]; [6]): < 0.1 µM
IC50 (NLRP3 inflammasome [2]): < 100 nM

O=C(Nc1c2c(cc3c1CCC3)CCC2)NS(=O)(=O)c1cccs1 [N-((1,2,3,5,6,7-hexahydro-s-indacen-4-yl)carbamoyl)thiophene-2-sulfonamide]
IC50 (NLRP3 inflammasome [1]; [6]): < 0.1 µM
IC50 (NLRP3 inflammasome [2]): < 100 nM

CC(C)c1cccc(C(C)C)c1NC(=O)NS(=O)(=O)c1cc(C(C)(C)O)n(C)n1 [N-((2,6-diisopropylphenyl)carbamoyl)-5-(2-hydroxypropan-2-yl)-1-methyl-1H-pyrazole-3-sulfonamide]
IC50 (NLRP3 inflammasome [1]; [6]): < 0.1 µM
IC50 (NLRP3 inflammasome [2]): < 100 nM

COc1cc(Cl)cc(OC)c1NC(=O)NS(=O)(=O)c1ccn(C(C)C)n1 [N-((4-chloro-2,6-dimethoxyphenyl)carbamoyl)-1-isopropyl-1H-pyrazole-3-sulfonamide]
IC50 (NLRP3 inflammasome [1]; [6]): < 50 µM
IC50 (NLRP3 inflammasome [4]; [8]): > 10 µM

Cc1cc(Cl)cc(C)c1NC(=O)NS(=O)(=O)c1ccn(C(C)C)n1 [N-((4-chloro-2,6-dimethylphenyl)carbamoyl)-1-isopropyl-1H-pyrazole-3-sulfonamide]
IC50 (NLRP3 inflammasome [1]; [6]): < 10 µM
IC50 (NLRP3 inflammasome [4]; [8]): > 10 µM

Cc1cc(Cl)cc(C(F)(F)F)c1NC(=O)NS(=O)(=O)c1ccn(C(C)C)n1 [N-((4-chloro-2-methyl-6-(trifluoromethyl)phenyl)carbamoyl)-1-isopropyl-1H-pyrazole-3-sulfonamide]
IC50 (NLRP3 inflammasome [1]; [6]): < 10 µM
IC50 (NLRP3 inflammasome [4]; [8]): > 10 µM

O=C(Nc1ccc(Cl)cc1)NS(=O)(=O)c1ccc2c(c1)CCC2 [N-((4-chlorophenyl)carbamoyl)-2,3-dihydro-1H-indene-5-sulfonamide]
IC50 (NLRP3 inflammasome [1]; inhibition of IL-1β release, numeric bounds, read-out: Avg. IL-1β IC50 HMDM): > 100 µM
IC50 (NLRP3 inflammasome [4]; [8]): > 10 µM

CC(C)n1ccc(S(=O)(=O)NC(=O)Nc2c(C3CC3)cc(Cl)c3c2CCC3)n1 [N-((7-chloro-5-cyclopropyl-2,3-dihydro-1H-inden-4-yl)carbamoyl)-1-isopropyl-1H-pyrazole-3-sulfonamide]
IC50 (NLRP3 inflammasome [1]; [6]): < 1 µM
IC50 (NLRP3 inflammasome [4]; [7]): < 1 µM

CC(C)(O)c1coc(S(=O)(=O)NC(=O)Nc2c3c(c(Br)c4c2CCC4)CCC3)c1 [N-((8-bromo-1,2,3,5,6,7-hexahydro-s-indacen-4-yl)carbamoyl)-4-(2-hydroxypropan-2-yl)furan-2-sulfonamide]
IC50 (NLRP3 inflammasome [1]; [6]): < 0.1 µM
IC50 (NLRP3 inflammasome [4]; [7]): < 0.1 µM

CC(C)(O)c1coc(S(=O)(=O)NC(=O)Nc2c3c(c(Cl)c4c2CCC4)CCC3)c1 [N-((8-chloro-1,2,3,5,6,7-hexahydro-s-indacen-4-yl)carbamoyl)-4-(2-hydroxypropan-2-yl)furan-2-sulfonamide]
IC50 (NLRP3 inflammasome [1]; [6]): < 0.1 µM
IC50 (NLRP3 inflammasome [4]; [7]): < 0.1 µM

O=C(Nc1ccc2ncccc2c1)NS(=O)(=O)c1cccc(C2(C(F)(F)F)N=N2)c1 [N-(quinolin-6-ylcarbamoyl)-3-(3-(trifluoromethyl)-3H-diazirin-3-yl)benzenesulfonamide]
IC50 (NLRP3 inflammasome [1]; inhibition of IL-1β release, uM, read-out: Avg. IL-1β IC50 HMDM): > 50 µM
IC50 (NLRP3 inflammasome [4]; inhibition of IL-1β release, uM, read-out: Avg. IL-1β IC50 Murine BMDM): > 50 µM

NS(=O)(=O)c1cccc(S(=O)(=O)NC(=O)Nc2c3c(cc4c2CCC4)CCC3)c1 [N^1-(1,2,3,5,6,7-Hexahydros-indacen-4-ylcarbamoyl)benzene-1,3-disulfonamide]
IC50 (NLRP3 inflammasome [1]; [6]): < 0.1 µM
IC50 (NLRP3 inflammasome [4]; [7]): < 0.1 µM

O=C(Nc1ccc(Cl)cc1)NS(=O)(=O)c1ccc2c(c1)CCC2 [Sulofenur, reference compound]
IC50 (NLRP3 inflammasome [1]; [9]): > 100 µM
IC50 (NLRP3 inflammasome [4]; [10]): > 10 µM

CCCCNC(=O)NS(=O)(=O)c1ccc(C)cc1 [Tolbutamide, reference compound]
IC50 (NLRP3 inflammasome [1]; [9]): > 200 µM
IC50 (NLRP3 inflammasome [4]; [10]): > 200 µM

CC(C)(O)c1coc(S(=O)(=O)NC(=O)Nc2c3c(cc4c2CCC4)CCC3)c1 [drawing 335]
concentration at 2 h [5]: 17500 ng/mL
concentration at 2 h (in vivo): 184 ng/g
Kp at 2 h (in vivo; read-out: Brain/Plasma Ratio): 0.0117

CC(C)n1ccc(S(=O)(=O)NC(=O)Nc2c3c(cc4c2CCC4)CCC3)n1 [drawing 336]
concentration at 2 h [5]: 28200 ng/mL

COc1ccc(Cl)cc1C(=O)NCCc1ccc(S(=O)(=O)NC(=O)Nc2c3c(cc4c2CCC4)CCC3)cc1 [drawing 358]
IC50 (NLRP3 inflammasome [1]; [11]): 0.14 µM
IC50 (NLRP3 inflammasome [4]; [12]): 0.24 µM

CCC1=C(C)CN(C(=O)NCCc2ccc(S(=O)(=O)NC(=O)Nc3c4c(cc5c3CCC5)CCC4)cc2)C1=O [drawing 360]
IC50 (NLRP3 inflammasome [1]; [11]): 0.65 µM
IC50 (NLRP3 inflammasome [4]; [12]): 0.22 µM

COc1ccc2c(c1)C(=O)N(CCc1ccc(S(=O)(=O)NC(=O)Nc3c4c(cc5c3CCC5)CCC4)cc1)C(=O)C2(C)C [drawing 361]
IC50 (NLRP3 inflammasome [1]; [11]): 2.3 µM
IC50 (NLRP3 inflammasome [4]; [12]): 0.26 µM

Cc1cc(C(=O)NCCc2ccc(S(=O)(=O)NC(=O)Nc3c4c(cc5c3CCC5)CCC4)cc2)no1 [drawing 362]
IC50 (NLRP3 inflammasome [1]; [11]): 0.19 µM
IC50 (NLRP3 inflammasome [4]; [12]): 0.28 µM

CC(=O)c1ccc(S(=O)(=O)NC(=O)Nc2c3c(cc4c2CCC4)CCC3)cc1 [drawing 363]
IC50 (NLRP3 inflammasome [1]; [11]): 0.31 µM
IC50 (NLRP3 inflammasome [4]; [12]): 0.036 µM

Nc1ccc(S(=O)(=O)NC(=O)Nc2c3c(cc4c2CCC4)CCC3)cc1 [drawing 365]
IC50 (NLRP3 inflammasome [1]; [11]): 0.31 µM
IC50 (NLRP3 inflammasome [4]; [12]): 0.014 µM

O=C(Nc1c2c(cc3c1CCC3)CCC2)NS(=O)(=O)c1ccc(Cl)cc1 [drawing 366]
IC50 (NLRP3 inflammasome [1]; [11]): 0.3 µM
IC50 (NLRP3 inflammasome [4]; [12]): 0.03 µM

O=C(Nc1c2c(cc3c1CCC3)CCC2)NS(=O)(=O)c1ccc2c(c1)CCC2 [drawing 367]
IC50 (NLRP3 inflammasome [1]; [11]): 1.46 µM
IC50 (NLRP3 inflammasome [4]; [12]): 0.05 µM
